Experiment [1] has as its target T1, recombinant human PAI-1 (Homo sapiens, UniProt P05121). In words: biochemical.
The target of another experiment is T2, recombinant rat PAI-1 (Rattus norvegicus, UniProt P20961).
T2 sequence (P20961 24-402): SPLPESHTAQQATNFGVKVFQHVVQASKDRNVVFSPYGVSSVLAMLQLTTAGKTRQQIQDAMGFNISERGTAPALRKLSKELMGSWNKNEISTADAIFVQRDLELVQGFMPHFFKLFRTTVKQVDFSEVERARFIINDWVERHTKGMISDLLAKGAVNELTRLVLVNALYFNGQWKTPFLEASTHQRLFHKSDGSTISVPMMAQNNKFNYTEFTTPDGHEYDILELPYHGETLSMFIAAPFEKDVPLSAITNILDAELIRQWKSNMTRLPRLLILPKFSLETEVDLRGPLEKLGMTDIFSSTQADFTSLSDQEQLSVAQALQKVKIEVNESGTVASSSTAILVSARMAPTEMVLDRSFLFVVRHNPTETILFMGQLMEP
As to the kind of experiment: biochemical. Conditions: read-out: Inhibition Rate of PAI-1 Activity (%).

Experiment [2] concerns the target T1, recombinant human PAI-1. As to the kind of experiment: Test Example 2: Human PAI-1 Inhibitory Activity (pH 7.4 HEPES buffer, 10 minutes incubation with two-chain tPA). On the set-up: purchased Molecular Innovations, Inc. Conditions: read-out: Inhibition Rate of PAI-1 Activity (%). The format is biochemical. As for the experimental part: 0.1 M HEPES, 0.1 M NaCl. 1 mM EDTA. 0.1 % Polyethylene glycol 8,000 (Hampton Research Corporation),
2 mM Dimethyldecylphoshine oxide [Apo-10] (Fluka Corporation)

Setting [3] is: read-out: Inhibition Rate of PAI-1 Activity (%), Compound Concentration 5µM.
Setting [4] is: read-out: Inhibition Rate of PAI-1 Activity (%), Compound Concentration 10µM.
[5] abbreviates: read-out: Inhibition Rate of PAI-1 Activity (%), Compound Concentration 25µM.
Where [6] appears, read: read-out: Inhibition Rate of PAI-1 Activity (%).

Read-outs that look alike come from different tables or passages of the source.

T1 sequence (P05121 24-402): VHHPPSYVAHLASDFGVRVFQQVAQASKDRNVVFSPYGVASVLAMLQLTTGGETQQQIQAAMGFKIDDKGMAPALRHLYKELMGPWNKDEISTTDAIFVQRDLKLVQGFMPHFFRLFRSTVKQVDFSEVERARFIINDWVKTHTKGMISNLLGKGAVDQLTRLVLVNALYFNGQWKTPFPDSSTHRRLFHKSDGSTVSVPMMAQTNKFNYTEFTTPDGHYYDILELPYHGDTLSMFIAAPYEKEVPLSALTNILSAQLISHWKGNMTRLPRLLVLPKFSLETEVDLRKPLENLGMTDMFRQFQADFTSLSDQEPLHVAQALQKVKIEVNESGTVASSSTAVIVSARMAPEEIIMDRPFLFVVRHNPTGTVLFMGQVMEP

As to `CC(C)(C)c1ccc(CN(C(=O)C(=O)O)c2ccc(Cl)cc2-c2ccc(OC(F)(F)F)cc2)cc1` [Compound 192], the inhibition at 5 µM on recombinant human PAI-1 [1] (setting [3]) turned out to be 80%. Further, at recombinant human PAI-1 [1] (setting [4]), the inhibition at 10 µM came to 95%. Also, on recombinant human PAI-1 [1] (setting [5]), the inhibition at 25 µM was found to be 94%. Also, at recombinant rat PAI-1, the inhibition at 0.3 µM is 0%, the inhibition at 1 µM came to 8%, the inhibition at 3 µM turned out to be 76% and the inhibition at 10 µM was 96%. On recombinant human PAI-1 [2], the inhibition at 0.1 µM is 0%, the inhibition at 0.3 µM was found to be 1%, the inhibition at 1 µM worked out at 35% and the inhibition at 3 µM is more than 99%.

For `CC(C)(C)c1ccc(Oc2cccc(-c3ccc(OC(F)(F)F)cc3)c2OCC(=O)O)cc1` [Compound 113], the inhibition at 5 µM at recombinant human PAI-1 [1] (setting [3]) worked out at 58%. Further, the inhibition at 10 µM at recombinant human PAI-1 [1] (setting [4]) amounted to 85%. In addition, the inhibition at 25 µM at recombinant human PAI-1 [1] (setting [5]) was 97%. Besides, at recombinant rat PAI-1, the inhibition at 0.3 µM came to 0%, the inhibition at 1 µM was determined as 9%, the inhibition at 3 µM worked out at 33% and the inhibition at 10 µM is 99%. Besides, at recombinant human PAI-1 [2], the inhibition at 0.1 µM came out at 0%, the inhibition at 0.3 µM turned out to be 6%, the inhibition at 1 µM came out at 26% and the inhibition at 3 µM was 73%.

Regarding `CC(C)(C)c1ccc(Oc2cccc(-c3ccc(OC(F)(F)F)cc3)c2CCC(=O)O)cc1` [Compound 94], the inhibition at 5 µM on recombinant human PAI-1 [1] (setting [3]) is 56%. Moreover, the inhibition at 10 µM at recombinant human PAI-1 [1] (setting [4]) came out at 90%. The inhibition at 25 µM at recombinant human PAI-1 [1] (setting [5]) was found to be 97%. Further, on recombinant rat PAI-1, the inhibition at 0.3 µM was 0%, the inhibition at 1 µM is 15%, the inhibition at 3 µM is 45% and the inhibition at 10 µM stood at 91%. For the same compound, on recombinant human PAI-1 [2], the inhibition at 0.1 µM turned out to be 0%, the inhibition at 0.3 µM was 3%, the inhibition at 1 µM came to 24% and the inhibition at 3 µM is 96%.

For the compound `CC(C)(C)c1ccc(CN(C(=O)C(=O)O)c2ccc(-c3ccc(OC(F)(F)F)cc3)cc2Cl)cc1` [Compound 147], the inhibition at 5 µM at recombinant human PAI-1 [1] (setting [3]) is 38%. Further, the inhibition at 10 µM at recombinant human PAI-1 [1] (setting [4]) was found to be 80%. Besides, the inhibition at 25 µM on recombinant human PAI-1 [1] (setting [5]) is 92%. Besides, on recombinant rat PAI-1, the inhibition at 0.3 µM is 0%, the inhibition at 1 µM came out at 14%, the inhibition at 3 µM was 70% and the inhibition at 10 µM amounted to 87%. In addition, at recombinant human PAI-1 [2], the inhibition at 0.1 µM amounted to 0%, the inhibition at 0.3 µM was determined as 7%, the inhibition at 1 µM was 35% and the inhibition at 3 µM came to 99%.

For the compound `CC(C)(C)c1ccc(COc2cc(-c3ccc(OC(F)(F)F)cc3)ccc2CCC(=O)O)cc1` [Compound 76], on recombinant human PAI-1 [1] (setting [6]), the inhibition at 5 µM worked out at 24%, the inhibition at 10 µM turned out to be 54% and the inhibition at 25 µM was determined as 98%. Also, on recombinant rat PAI-1, the inhibition at 0.3 µM stood at 0%, the inhibition at 1 µM came to 6%, the inhibition at 3 µM was found to be 56% and the inhibition at 10 µM turned out to be 86%. Besides, at recombinant human PAI-1 [2], the inhibition at 0.1 µM was 10%, the inhibition at 0.3 µM amounted to 12%, the inhibition at 1 µM is 37% and the inhibition at 3 µM was 99%.

For the compound `CC(C)(C)c1ccc(CN(C(=O)C(=O)O)c2cc(C(F)(F)F)ccc2-c2ccc(OC(F)(F)F)cc2)cc1` [Compound 168], the inhibition at 5 µM at recombinant human PAI-1 [1] (setting [3]) is 63%. In addition, the inhibition at 10 µM on recombinant human PAI-1 [1] (setting [4]) is 94%. Besides, on recombinant rat PAI-1, the inhibition at 0.3 µM is 0%, the inhibition at 1 µM came out at 12%, the inhibition at 3 µM is 81% and the inhibition at 10 µM was 97%. Further, at recombinant human PAI-1 [2], the inhibition at 0.1 µM is 0%, the inhibition at 0.3 µM amounted to 0%, the inhibition at 1 µM is 33% and the inhibition at 3 µM worked out at 99%.

Turning to `CC(C)(C)c1ccc(C(c2ccccc2)N(C(=O)C(=O)O)c2ccc(-c3ccc(OC(F)(F)F)cc3)cc2)cc1` (centres unmarked) [Compound 222], the inhibition at 5 µM on recombinant human PAI-1 [1] (setting [3]) worked out at 74%. The inhibition at 10 µM on recombinant human PAI-1 [1] (setting [4]) was determined as 91%. In addition, on recombinant rat PAI-1, the inhibition at 0.3 µM was determined as 3%, the inhibition at 1 µM is 32% and the inhibition at 3 µM came out at 91%. At recombinant human PAI-1 [2], the inhibition at 0.1 µM amounted to 0%, the inhibition at 0.3 µM was found to be 3%, the inhibition at 1 µM was 45% and the inhibition at 3 µM was more than 99%.

With `CC(C)(C)c1ccc(COc2cccc(Oc3ccc(OC(F)(F)F)cc3)c2CCC(=O)O)cc1` [Compound 86], the inhibition at 5 µM on recombinant human PAI-1 [1] (setting [3]) amounted to 47%. Moreover, the inhibition at 10 µM on recombinant human PAI-1 [1] (setting [4]) came out at 80%. Moreover, the inhibition at 25 µM at recombinant human PAI-1 [1] (setting [5]) worked out at 98%. Besides, at recombinant rat PAI-1, the inhibition at 0.3 µM is 0%, the inhibition at 1 µM came to 12%, the inhibition at 3 µM turned out to be 34% and the inhibition at 10 µM was found to be 69%. Also, on recombinant human PAI-1 [2], the inhibition at 0.1 µM was found to be 0%, the inhibition at 0.3 µM is 0%, the inhibition at 1 µM was 22% and the inhibition at 3 µM was determined as 87%.

For the compound `CCCCOc1ccc(-c2ccc(OC(F)(F)F)cc2)cc1N(CCCCc1ccccc1)C(=O)C(=O)O` [Compound 231], the inhibition at 5 µM on recombinant human PAI-1 [1] (setting [3]) turned out to be 81%. The inhibition at 10 µM at recombinant human PAI-1 [1] (setting [4]) turned out to be 97%. Moreover, the inhibition at 25 µM on recombinant human PAI-1 [1] (setting [5]) was found to be 94%. Besides, at recombinant rat PAI-1, the inhibition at 0.3 µM was found to be 3%, the inhibition at 1 µM was 18%, the inhibition at 3 µM was 89% and the inhibition at 10 µM was more than 99%. For the same compound, at recombinant human PAI-1 [2], the inhibition at 0.1 µM came to 0%, the inhibition at 0.3 µM is 6%, the inhibition at 1 µM was 34% and the inhibition at 3 µM was 98%.

Consider `CC(C)(Oc1cc(-c2ccc(OC(F)(F)F)cc2)ccc1OCCCCc1ccccc1)C(=O)O` [Compound 116], for which, on recombinant human PAI-1 [1] (setting [6]), the inhibition at 5 µM came out at 56%, the inhibition at 10 µM was found to be 81% and the inhibition at 25 µM was found to be 91%. For the same compound, on recombinant rat PAI-1, the inhibition at 0.3 µM stood at 2%, the inhibition at 1 µM came out at 12%, the inhibition at 3 µM amounted to 43% and the inhibition at 10 µM was found to be 98%. At recombinant human PAI-1 [2], the inhibition at 0.1 µM was 0%, the inhibition at 0.3 µM amounted to 0%, the inhibition at 1 µM was 15% and the inhibition at 3 µM is 89%.

For the compound `CC(C)(C)c1ccc(CN(C(=O)C(=O)O)c2cccc(Oc3ccc(OC(F)(F)F)cc3)c2)cc1` [Compound 172], the inhibition at 5 µM at recombinant human PAI-1 [1] (setting [3]) came to 58%. Further, the inhibition at 10 µM on recombinant human PAI-1 [1] (setting [4]) was found to be 89%. Moreover, the inhibition at 25 µM on recombinant human PAI-1 [1] (setting [5]) worked out at 94%. Besides, at recombinant rat PAI-1, the inhibition at 0.3 µM stood at 0%, the inhibition at 1 µM is 6%, the inhibition at 3 µM was determined as 49% and the inhibition at 10 µM was 97%. Moreover, at recombinant human PAI-1 [2], the inhibition at 0.1 µM stood at 4%, the inhibition at 0.3 µM came out at 8%, the inhibition at 1 µM turned out to be 18% and the inhibition at 3 µM is 76%.

Take `CCCCOc1ccc(N(CCCCc2ccccc2)C(=O)C(=O)O)cc1-c1ccc(OC(F)(F)F)cc1` [Compound 227]: on recombinant human PAI-1 [1] (setting [6]), the inhibition at 5 µM was determined as 63% and the inhibition at 10 µM is 90%. In addition, on recombinant rat PAI-1, the inhibition at 0.3 µM was 0%, the inhibition at 1 µM stood at 14%, the inhibition at 3 µM is 77% and the inhibition at 10 µM is 95%. Further, on recombinant human PAI-1 [2], the inhibition at 0.1 µM turned out to be 0%, the inhibition at 0.3 µM was determined as 7%, the inhibition at 1 µM was found to be 41% and the inhibition at 3 µM turned out to be 98%.
